Assay results reported in ChEMBL document CHEMBL1131899, “First fatty acylated dipeptides to affect muscarinic receptor ligand binding” (Bioorg Med Chem Lett, 1999).
Where a SMILES comes first, the peptide text is derived from it. The star is where a group is joined. Palmitoyl = CCCCCCCCCCCCCCCC(=O)*; Myristoyl = CCCCCCCCCCCCCC(=O)*; OBn = c1ccc(CO*)cc1

Columns and labels:
[1] = target: T1, Muscarinic acetylcholine receptor M1 (Homo sapiens) (UniProt P11229); experiment: (§1) Binding of [3H]QNB to HM1 receptor was evaluated by saturation binding assay
T1 sequence (whole entry): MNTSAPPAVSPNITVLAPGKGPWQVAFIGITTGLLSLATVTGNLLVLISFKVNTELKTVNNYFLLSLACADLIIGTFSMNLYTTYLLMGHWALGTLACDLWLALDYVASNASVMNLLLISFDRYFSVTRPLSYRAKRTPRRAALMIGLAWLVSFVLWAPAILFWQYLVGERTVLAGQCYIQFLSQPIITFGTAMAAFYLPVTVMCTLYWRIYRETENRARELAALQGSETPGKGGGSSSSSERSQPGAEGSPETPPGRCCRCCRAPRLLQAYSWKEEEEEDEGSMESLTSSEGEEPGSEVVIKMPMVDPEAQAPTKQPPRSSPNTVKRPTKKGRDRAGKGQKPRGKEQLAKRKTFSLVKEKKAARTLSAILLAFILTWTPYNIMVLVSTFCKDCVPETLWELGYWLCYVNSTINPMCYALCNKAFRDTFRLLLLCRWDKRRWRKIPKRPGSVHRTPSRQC

[2] = target: T2, Muscarinic acetylcholine receptor M1 (Homo sapiens, UniProt P11229); experiment: as §1
T2 sequence (P11229 whole entry): T1 sequence (whole entry)

[3] = target: T3, Muscarinic acetylcholine receptor M2 (Homo sapiens) (UniProt P08172); experiment: (§2) Binding of [3H]QNB to HM2 receptor was evaluated by saturation binding assay
T3 sequence (whole entry): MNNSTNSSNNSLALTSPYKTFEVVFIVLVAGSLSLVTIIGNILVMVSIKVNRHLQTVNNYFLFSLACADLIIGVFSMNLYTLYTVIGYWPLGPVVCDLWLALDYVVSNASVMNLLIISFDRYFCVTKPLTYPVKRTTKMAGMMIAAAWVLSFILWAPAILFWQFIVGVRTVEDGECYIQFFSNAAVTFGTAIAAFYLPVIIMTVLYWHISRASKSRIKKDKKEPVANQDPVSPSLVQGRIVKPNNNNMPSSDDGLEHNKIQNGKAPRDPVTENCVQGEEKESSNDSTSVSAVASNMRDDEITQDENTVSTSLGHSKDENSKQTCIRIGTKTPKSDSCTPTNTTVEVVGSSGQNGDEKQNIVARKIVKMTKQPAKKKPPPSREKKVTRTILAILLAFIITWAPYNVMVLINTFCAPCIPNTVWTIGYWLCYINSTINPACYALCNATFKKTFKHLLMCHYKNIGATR

[4] = target: T4, Muscarinic acetylcholine receptor M2 (Homo sapiens, UniProt P08172); experiment: as §2
T4 sequence (P08172 whole entry): T3 sequence (whole entry)

SMILES	Bmax [1]	Kd [2]	Bmax [3]	Kd [4]
CCCCCCCCCCCCCCCC(=O)OC[C@H](NC(=O)CNC(=O)CCCCCCCCCCCCC)C(=O)OCc1ccccc1 (Myristoyl-Gly-Ser(Palmitoyl)-OBn)	1.2 pmol/mg	0.03 nM	1.8 pmol/mg	1.78 nM
CCCCCCCCCCCCCC(=O)NCC(=O)N[C@@H](CO)C(=O)OCc1ccccc1 (Myristoyl-Gly-Ser-OBn)	1.7 pmol/mg	0.04 nM	0.8 pmol/mg	0.15 nM
